Patent publication US4029692A, “Steroid carboxylic acids and derivatives” (priority 1975, dated 1977)

Tests used:
thymus weight = assay: Thymolysis test (thymus weight reduction); assay type: in vivo, rats (female); settings: Rattus norvegicus, 120 h; 50% reduction in the thymus weight; rats of the Felt pellet test; oral on 4 successive days
Procedure: (§1) 2 felt pellets were implanted under the skin (scapula region) in female rats (90-110 g) under ether narcosis. The D-homosteroids were administered orally on 4 successive days commencing on the day of the implantation. On the fifth day the rats were killed, the granulomas which formed were removed, dried and weighed. The ED40, namely that dosage which gave a 40% reduction of the granulation weight, was determined. The thymus and kidney fresh weight as well as the weight-change were also determined.
Rats employed in the Felt pellet test were used for this test. The ED50, namely that dosage which gave a 50% reduction in the thymus weight, was determined.

[1] = test system: hind paw oedema (Mycobacterium butyricum); assay: Adjuvant-paw oedema test; assay type: in vivo, Lewis rats (female); settings: in Rattus norvegicus, 50% oedema inhibition, given immediately before and 24 hours after, paw diameter at 48 hours
Procedure: This test was carried out on female Lewis rats weighing 130-150 g. The oedema was caused by the subplantar injection of Mycobacterium butyricum in the right hind paw (0.5 mg of M. butyricum/0.1 ml of liquid paraffin). The D-homosteroids (suspended in 0.5% tragacanth/0.9% sodium chloride) were administered immediately before and 24 hours after the establishment of the oedema. The paw diameter was measured before and 48 hours after the establishment of the oedema. The ED50, namely the dosage which brings about a 50% oedema inhibition, was determined by means of a graph.

[2] = test system: granulomas (felt pellets implanted under the skin); assay: Felt pellet test (granulation weight reduction); assay type: in vivo, rats (female); settings: Rattus norvegicus, 120 h; 40% reduction of the granulation weight; oral on 4 successive days
Procedure: as §1

[3] = test system: experimentally hyperemiated skin; assay: Vasoconstriction test; assay type: in vivo; settings: concentration 0.1%, visual estimate, hyperemiated non-treated skin = 0, non-hyperemiated skin = 100; for Vasoconstriction, colour value, 4 hrs.: after 4 hours; for Vasoconstriction, colour value, 8 hrs.: after 8 hours
Procedure: J. Derm. 69, 11 (1957)]. In this test, the degree of the vasoconstriction in relation to the time was estimated visually (after 4 and 8 hours). The colour value of the hyperemiated non-treated skin was rated as 0 and the colour value of the non-hyperemiated skin was rated as 100. The D-homosteroids were used in concentration of 0.1%.

Row | Compound | ED50 (thymus weight) | ED50 [1] | ED40 [2] | Vasoconstriction, colour value, 4 hrs. [3] | Vasoconstriction, colour value, 8 hrs. [3]
1 | COC(=O)[C@@]1(OC(C)=O)CCC[C@H]2[C@@H]3CCC4=CC(=O)C=C[C@]4(C)[C@H]3[C@@H](O)C[C@@]21C [17aα-acetoxy-11β-hydroxy-3-oxo-D-homoandrosta-1,4-diene-17aβ-carboxylic acid methyl ester] | 0.65 mg/kg | 3.5 mg/kg | 3 mg/kg | 70 | 77
2 | COC(=O)[C@@]1(OC(C)=O)CCC[C@H]2[C@@H]3CCC4=CC(=O)CC[C@]4(C)[C@H]3[C@@H](O)C[C@@]21C [17aα-acetoxy-11β-hydroxy-3-oxo-D-homoandrost-4-ene-17aβ-carboxylic acid methyl ester] | – | – | – | 72 | 70
3 | COC(=O)[C@@]1(OC(C)=O)CCC[C@H]2[C@@H]3CCC4=CC(=O)C=C[C@]4(C)[C@@]3(F)[C@@H](O)C[C@@]21C [17aα-acetoxy-9α-fluoro-11β-hydroxy-3-oxo-D-homoandrosta-1,4-diene-17aβ-carboxylic acid methyl ester] | 0.9 mg/kg | 1.3 mg/kg | 9 mg/kg | 63 | 77
